# According to patent US12678440B2, “Compositions and methods for treating misfolded protein ocular disorders” (CASE WESTERN RESERVE UNIVERSITY, priority 2020, dated 2026):
# Assays:
# [1] = test system: chymotrypsin-like proteasome activity; test: Proteasome activity assay (Proteasome-Glo); format: cell-based; conditions: NIH3T3 (RHO^P23H/GFP) and NIH3T3 (RHO^WT/GFP) cells; 0.0195 to 10 μM, 24 h
# Protocol: NIH3T3 (RHO^P23H/GFP), NIH3T3 (RHO^WT/GFP) and NIH3T3 cells were seeded in a white-wall clear-bottom 384-well plate at 2500 cells/well in 20 μL of complete mediu. After 3 h of incubation, five μL/well of complete medium containing MTX was added to cells to treat cells with MTX at final concentrations from 0.0195 to 10 μM for 24 h. The cells treated with a complete medium containing 0.1% DMSO were used as the 100% control, and those treated with 5 μM MG-132 for 8 h were used as the 0% control. For endpoint proteasome activity measurement, each well was added with 25 μL of Proteasome-Glo™ Reagent containing the Suc-LLVY-Glo™ substrate (Promega, G8660, Madison, WI USA). The 384-well plate was shaken for 2 min to mix the solutions followed by a 24-min incubation at room temperature. Luminescence of each well was detected by a SpectraMax 13× microplate reader (Molecular Devices). The chymotrypsin-like proteasome activity was normalized by the 100% and 0% controls, respectively.
# Rho^P23H/+ mice = test: Retinal immunohistochemistry (IHC) after intravitreal injection; format: in vivo, mouse
# Protocol: The C57BL/6J (Rho^+/+) mice and Rho^P23H/P23H mice were purchased from Jackson Laboratory (Stock No 017628) generated by Dr. Krzysztof Palczewski's lab. The Rho^P23H/P23H mice were crossed with wild-type C57BL/6J mice to produce P23H heterozygotes mice. Genotyping for all strains was conducted as guided using forward and reverse primers: 1) GGTAGCACTGTTGGGCATCT (SEQ ID NO: 5); and 2) GACCCCACAGAGACAAGCTC (SEQ ID NO: 6), respectively. The PCR products at 573 and 399 bp indicated the P23H knock-in mutant and WT allele of the RHO gene, respectively. Mice were bred and housed under standard 12-h light/12-h dark conditions in the University of Pittsburgh animal facility. All animal experiments were approved by the University of Pittsburgh Institutional Animal Care and Use Committee (IACUC) following the guide for the Animal Welfare Act and Regulations.
# To determine the effect of compounds on retina in vivo, we administered compounds directly into the vitreous space. Briefly, mice were treated with 1% tropicamide eye drops (Akorn, Lake Forest, IL USA) to dilate the pupils and then they were anesthetized with an intraperitoneal injection of ketamine (Henry Schein, Dublin, OH USA) at 80 mg/kg body weight (bw) and xylazine (Bimeda, Le Sueur, MN USA) at 7 mg/kg bw. One drop of 0.5% tetracaine hydrochloride (TCI, Tokyo, Japan) was applied to mouse eyes as topical anesthetics before injection. Eyes were kept lubricated during the injections by a 0.3% hypromellose eye gel (Alcon, Fort Worth, TX USA). A heating pad was used for maintaining body temperature. Mice were positioned to expose the sclera of the eyes. A 30-gauge needle (Medline, Northfield, IL USA) was used to puncture a hole through sclera behind limbus at a 45° angle. A 33-gauge blunt-end needle (Hamilton, Reno, NV USA) was used to be inserted into the hole and a total of 0.5 μL of sterile PBS or MTX in PBS was slowly injected into the posterior chamber and the needle was kept in place for about 30 seconds before a slow removal of the needle. A small amount of Triantibiotic ointment (Medline, Northfield, IL USA) was applied on the injection site to prevent infection. A single IVI with 25 or 100 pmol of MTX was administered to one eye of each Rho^P23H/+ mice at postnatal day (PND) 15, and PBS was injected to the other eye as vehicle control. We also performed four weekly IVIs of MTX or PBS to the second group of Rho^P23H/+ mouse eyes at PND 15, 22, 29 and 36.
# Eyes were enucleated by a pair of curved-tip forceps and fixed in the freshly prepared 4% paraformaldehyde for 2 h. Fixed eyes were dehydrated sequentially in 5, 10, 20 and 40% sucrose solutions in PBS each for 30 min at room temperature. Finally, eyes were incubated in a mixture of 40% sucrose in PBS and O.C.T. compound (FisherScientific, Houston, TX USA) at 1:1 volume ratio for overnight at 4° C. before they are embedded in the same mixed solution in an orientation-specific manner and frozen in liquid nitrogen-bathed isobutene. Twelve-micron retinal cross-sections were made by a microtome at −16° C. and those containing the optic nerve head were applied onto a SuperFrost glass slide (FisherScientific, Houston, TX USA). These slides were then used for IHC. After rehydration and permeabilization in PBST for 15 min, retinal sections were incubated in 5% goat serum for 30 min, and then they were incubated with PBS containing the mouse 1D4 anti-rhodopsin antibody (20 μg/mL) for 2 hours at room temperature in a humidified chamber. The retinal sections were washed with PBST for four times and incubated with Cy3 conjugated goat anti-mouse antibody (5 μg/mL) for 1 hour at room temperature. Hoechst 33342 (1:10000 dilution) was applied for 5 min to stain the nuclei. Sections were mounted with the ProlongGold mounting solution (ThermoFisher, Waltham, MA USA). Immunofluorescence images were then taken by a fluorescence microscope for low-magnification images and a confocal microscope for high-magnification images. […]
# rabbits = conditions: 1.76 μmol MTX (about 1 mM in vitreous); cited from earlier work
# [2] = four IVIs of 25 pmol, PND 46, vs PBS, superior side, not inferior side
# [3] = single IVI 25 pmol, PND 33, vs PBS, superior side, not inferior side
compound,measurement,setting,value
"CN(Cc1cnc2nc(N)nc(N)c2n1)c1ccc(C(=O)N[C@@H](CCC(=O)O)C(=O)O)cc1 [CL-009, N-[4-[[(2,4-diamino-6-pteridinyl)methyl]methylamino]benzoyl]-L-glutamic acid]",chymotrypsin-like proteasome activity,[1],did not affect
same,retinal degeneration caused by MTX,"Rho^P23H/+ mice; 100 pmol IVI, Rho^P23H/+ mice",did not see obvious retinal degeneration
same,level of rhodopsin in the ONL (IHC),Rho^P23H/+ mice; [2],lower
same,levels of rhodopsin in the OS (IHC),Rho^P23H/+ mice; [2],significantly higher
same,nucleus number in the ONL,Rho^P23H/+ mice; [2],higher
same,rhodopsin in the OS (IHC),Rho^P23H/+ mice; [3],significant increase
same,total rhodopsin level in retinae (IHC),Rho^P23H/+ mice; [3],significant increase
same,ONL nucleus number,"Rho^P23H/+ mice; single IVI, PND 33, either side of the retina",No change
same,retinal damage after intravitreal injection,rabbits,Retinal damages were observed
